24 compounds from patent US20240190831A1, “TRANSTHYRETIN STABILIZING COMPOUNDS” (Protego Biopharma, Inc., priority 2021, published 2024) can be followed below.

The structures appear in SMILES notation. Structures can show the parent of a compound that is named as a salt.

A short description of this series: In vitro rat liver S9 stability assay (formation of tafamidis). The format is in vitro ADME. Particulars: rat liver S9, 1 μM test compound, 37° C. On the procedure: A stability assay in liver S9 (rat or human) was used to evaluate the ability of a compound provided herein to convert to an active TTR stabilizer. The test compound was added to liver S9 and incubated at 37° C. in a water bath at a concentration of 1 μM. At each time point (0, 5, 10, 20, 30 and 60 min), stop solution (tolbutamide plus labetalol) was added to precipitate protein and mixed thoroughly. After centrifugation, an aliquot of supernatant was analyzed by LC-MS/MS. The percentage of formation of active agent was calculated at each time point.
Consider `O=C(N[C@@H]1CCC[C@@H]1O)c1ccc2nc(-c3cc(Cl)cc(Cl)c3)oc2c1` (relative stereo) [Compound 28, 2-(3,5-dichlorophenyl)-N-((cis)-2-hydroxycyclopentyl)benzo-[d]oxazole-6-carboxamide], for which the “Formation of tafamidis at 60 min” value was “A (A is <25%)”. The same measure for `O=C(N[C@@H]1CCC[C@H]1O)c1ccc2nc(-c3cc(Cl)cc(Cl)c3)oc2c1` (relative stereo) [Compound 29, 2-(3,5-dichlorophenyl)-N-((trans)-2-hydroxycyclopentyl)benzo-[d]oxazole-6-carboxamide]: “A (A is <25%)”; for `O=C(N[C@@H]1CC[C@H](O)C1)c1ccc2nc(-c3cc(Cl)cc(Cl)c3)oc2c1` (relative stereo) [Compound 30, 2-(3,5-dichlorophenyl)-N-((cis)-3-hydroxycyclopentyl)benzo-[d]oxazole-6-carboxamide]: “A (A is <25%)”.

On to `O=C(N[C@@H]1CC[C@@H](O)C1)c1ccc2nc(-c3cc(Cl)cc(Cl)c3)oc2c1` (relative stereo) [Compound 31, 2-(3,5-dichlorophenyl)-N-((trans)-3-hydroxycyclopentyl)benzo-[d]oxazole-6-carboxamide], for which the “Formation of tafamidis at 60 min” value is given as “A (A is <25%)”. For the compound `O=C(N[C@@H]1CCCC[C@@H]1O)c1ccc2nc(-c3cc(Cl)cc(Cl)c3)oc2c1` (relative stereo) [Compound 32, 2-(3,5-dichlorophenyl)-N-((cis)-2-hydroxycyclohexyl)benzo-[d]oxazole-6-carboxamide], the “Formation of tafamidis at 60 min” value is given as “A (A is <25%)”. As for `O=C(N[C@@H]1CCCC[C@H]1O)c1ccc2nc(-c3cc(Cl)cc(Cl)c3)oc2c1` (relative stereo) [Compound 33, 2-(3,5-dichlorophenyl)-N-((trans)-2-hydroxycyclohexyl)benzo-[d]oxazole-6-carboxamide], the entry is “A (A is <25%)”; as for `CN(C)[C@H]1CC[C@@H](OC(=O)c2ccc3nc(-c4cc(Cl)cc(Cl)c4)oc3c2)C1` (relative stereo) [Compound 46, Cis-3-(dimethylamino)cyclopentyl 2-(3,5-dichlorophenyl)benzo-[d]oxazole-6-carboxylate—HCl salt], “A (A is <25%)”. `CN(C)[C@@H]1CC[C@@H](OC(=O)c2ccc3nc(-c4cc(Cl)cc(Cl)c4)oc3c2)C1` (relative stereo) [Compound 47, Trans-3-(dimethylamino)cyclopentyl 2-(3,5-dichlorophenyl)benzo-[d]oxazole-6-carboxylate—HCl salt]: the “Formation of tafamidis at 60 min” value was “A (A is <25%)”. Consider `O=C(O[C@H]1CCN2CCC[C@H]12)c1ccc2nc(-c3cc(Cl)cc(Cl)c3)oc2c1` (relative stereo) [Compound 58, (cis)-hexahydro-1H-pyrrolizin-1-yl 2-(3,5-dichlorophenyl)benzo[d]oxazole-6-carboxylate], for which the “Formation of tafamidis at 60 min” value was “A (A is <25%)”.

Take `O=C(O[C@H]1CCN2CCC[C@@H]12)c1ccc2nc(-c3cc(Cl)cc(Cl)c3)oc2c1` (relative stereo) [Compound 59, (trans)-hexahydro-1H-pyrrolizin-1-yl 2-(3,5-dichlorophenyl)benzo[d]oxazole-6-carboxylate]: the “Formation of tafamidis at 60 min” value was “A (A is <25%)”. The same measure for `CC(CO)OC(=O)c1ccc2nc(-c3cc(Cl)cc(Cl)c3)oc2c1` (single isomer, unassigned) [Compound 43, 1-hydroxypropan-2-yl 2-(3,5-dichlorophenyl) benzo[d]oxazole-6-carboxylate]: “C (C is ≥50 to <75%)”.

Regarding `CC(CO)OC(=O)c1ccc2nc(-c3cc(Cl)cc(Cl)c3)oc2c1` (single isomer, unassigned) [Compound 44, 1-hydroxypropan-2-yl 2-(3,5-dichlorophenyl) benzo[d]oxazole-6-carboxylate], the “Formation of tafamidis at 60 min” value is “C (C is ≥50 to <75%)”. The same measure for `O=C(O[C@H]1CCCN2CCC[C@H]12)c1ccc2nc(-c3cc(Cl)cc(Cl)c3)oc2c1` (single isomer, unassigned) [Compound 69, Octahydroindolizin-8-yl 2-(3,5-dichlorophenyl)benzo[d]oxazole-6-carboxylate]: “A (A is <25%)”. The same measure for `O=C(O[C@H]1CCCN2CCC[C@@H]12)c1ccc2nc(-c3cc(Cl)cc(Cl)c3)oc2c1` (single isomer, unassigned) [Compound 70, Octahydroindolizin-8-yl 2-(3,5-dichlorophenyl)benzo[d]oxazole-6-carboxylate]: “A (A is <25%)”. As for `O=C(O[C@H]1CCCN2CCCC[C@H]12)c1ccc2nc(-c3cc(Cl)cc(Cl)c3)oc2c1` (single isomer, unassigned) [Compound 71, Octahydro-1H-quinolizin-1-yl 2-(3,5-dichlorophenyl)benzo[d]oxazole-6-carboxylate], the “Formation of tafamidis at 60 min” value was “B (B is ≥25 to <50%)”. As for `O=C(O[C@H]1CCCN2CCCC[C@@H]12)c1ccc2nc(-c3cc(Cl)cc(Cl)c3)oc2c1` (single isomer, unassigned) [Compound 72, Octahydro-1H-quinolizin-1-yl 2-(3,5-dichlorophenyl)benzo[d]oxazole-6-carboxylate], the entry is “A (A is <25%)”; as for `CC(F)(F)CNC(=O)c1ccc2nc(-c3cc(Cl)cc(Cl)c3)oc2c1` [Compound 1, 2-(3,5-dichlorophenyl)-N-(2,2-difluoropropyl)benzo[d]oxazole-6-carboxamide], “A (A is <25%)”.

In the case of `CC(NC(=O)c1ccc2nc(-c3cc(Cl)cc(Cl)c3)oc2c1)C(F)F` (stereo not drawn) [Compound 2, 2-(3,5-dichlorophenyl)-N-(1,1-difluoropropan-2-yl)benzo[d]oxazole-6-carboxamide], the “Formation of tafamidis at 60 min” value is given as “A (A is <25%)”. For `O=C(NCC(F)(F)C(F)(F)F)c1ccc2nc(-c3cc(Cl)cc(Cl)c3)oc2c1` [Compound 3, 2-(3,5-dichlorophenyl)-N-(2,2,3,3,3-pentafluoropropyl)benzo[d]oxazole-6-carboxamide], the “Formation of tafamidis at 60 min” value is recorded as “A (A is <25%)”. As for `NC(=O)c1ccc2nc(-c3cc(Cl)cc(Cl)c3)oc2c1` [Compound 4, 2-(3,5-dichlorophenyl)benzo[d]oxazole-6-carboxamide], the entry is “A (A is <25%)”; as for `N#CCNC(=O)c1ccc2nc(-c3cc(Cl)cc(Cl)c3)oc2c1` [Compound 5, N-(cyanomethyl)-2-(3,5-dichlorophenyl)benzo[d]oxazole-6-carboxamide], “A (A is <25%)”.

For the compound `COCCNC(=O)c1ccc2nc(-c3cc(Cl)cc(Cl)c3)oc2c1` [Compound 6, 2-(3,5-dichlorophenyl)-N-(2-methoxyethyl)benzo[d]oxazole-6-carboxamide], the “Formation of tafamidis at 60 min” value is listed as “A (A is <25%)”. The same measure for `CN(C)CCN(C)C(=O)c1ccc2nc(-c3cc(Cl)cc(Cl)c3)oc2c1` [Compound 8, 2-(3,5-dichlorophenyl)-N-(2-(dimethylamino)ethyl)-N-methylbenzo[d]oxazole-6-carboxamide]: “A (A is <25%)”; for `CNCCNC(=O)c1ccc2nc(-c3cc(Cl)cc(Cl)c3)oc2c1` [Compound 9, 2-(3,5-dichlorophenyl)-N-(2-(methylamino)ethyl)benzo[d]oxazole-6-carboxamide hydrochloride]: “A (A is <25%)”.
